Data on 30 molecules can be found in US10155769B2, “Fused azaheterocyclic compounds and their use as AMPA receptor modulators” (Janssen Pharmaceutica NV, priority 2016, dated 2018).

SMILES strings stand for the structures.

The experiment deals with GluA1o-γ8 (Homo sapiens (Human), UniProt P42261+Q8WXS5). The experiment can be described thus: Calcium flux assay (FLIPR), inhibition of TARP γ8 dependent AMPA receptor activity. The class given is cell-based. The following applies: HEK293 cells stably expressing GRIA1o-CACNG8 fusion construct; calcium flux following 15 μM glutamate; negative log of IC50 in molar. The source says: This assay was used to test compounds for their ability to inhibit TARP γ8 dependent AMPA receptor activity. The AMPA receptor is a non-selective cation channel activated by glutamate. Ionotropic glutamate receptors normally desensitize too rapidly to allow detectable calcium influx in a FLIPR assay (Strange et al. (2006). “Functional characterisation of homomeric ionotropic glutamate receptors GluR1-GluR6 in a fluorescence-based high throughput screening assay.” Comb Chem High Throughput Screen 9(2): 147-158). But, this desensitization is incomplete, and a substantial steady-state current remains in the sustained presence of glutamate (Cho et al. (2007). “Two families of TARP isoforms that have distinct effects on the kinetic properties of AMPA receptors and synaptic currents.” Neuron 55(6): 890-904).
Sequence of GluA1o-γ8 (P42261 other isoform, or with tags, fused parts or gaps): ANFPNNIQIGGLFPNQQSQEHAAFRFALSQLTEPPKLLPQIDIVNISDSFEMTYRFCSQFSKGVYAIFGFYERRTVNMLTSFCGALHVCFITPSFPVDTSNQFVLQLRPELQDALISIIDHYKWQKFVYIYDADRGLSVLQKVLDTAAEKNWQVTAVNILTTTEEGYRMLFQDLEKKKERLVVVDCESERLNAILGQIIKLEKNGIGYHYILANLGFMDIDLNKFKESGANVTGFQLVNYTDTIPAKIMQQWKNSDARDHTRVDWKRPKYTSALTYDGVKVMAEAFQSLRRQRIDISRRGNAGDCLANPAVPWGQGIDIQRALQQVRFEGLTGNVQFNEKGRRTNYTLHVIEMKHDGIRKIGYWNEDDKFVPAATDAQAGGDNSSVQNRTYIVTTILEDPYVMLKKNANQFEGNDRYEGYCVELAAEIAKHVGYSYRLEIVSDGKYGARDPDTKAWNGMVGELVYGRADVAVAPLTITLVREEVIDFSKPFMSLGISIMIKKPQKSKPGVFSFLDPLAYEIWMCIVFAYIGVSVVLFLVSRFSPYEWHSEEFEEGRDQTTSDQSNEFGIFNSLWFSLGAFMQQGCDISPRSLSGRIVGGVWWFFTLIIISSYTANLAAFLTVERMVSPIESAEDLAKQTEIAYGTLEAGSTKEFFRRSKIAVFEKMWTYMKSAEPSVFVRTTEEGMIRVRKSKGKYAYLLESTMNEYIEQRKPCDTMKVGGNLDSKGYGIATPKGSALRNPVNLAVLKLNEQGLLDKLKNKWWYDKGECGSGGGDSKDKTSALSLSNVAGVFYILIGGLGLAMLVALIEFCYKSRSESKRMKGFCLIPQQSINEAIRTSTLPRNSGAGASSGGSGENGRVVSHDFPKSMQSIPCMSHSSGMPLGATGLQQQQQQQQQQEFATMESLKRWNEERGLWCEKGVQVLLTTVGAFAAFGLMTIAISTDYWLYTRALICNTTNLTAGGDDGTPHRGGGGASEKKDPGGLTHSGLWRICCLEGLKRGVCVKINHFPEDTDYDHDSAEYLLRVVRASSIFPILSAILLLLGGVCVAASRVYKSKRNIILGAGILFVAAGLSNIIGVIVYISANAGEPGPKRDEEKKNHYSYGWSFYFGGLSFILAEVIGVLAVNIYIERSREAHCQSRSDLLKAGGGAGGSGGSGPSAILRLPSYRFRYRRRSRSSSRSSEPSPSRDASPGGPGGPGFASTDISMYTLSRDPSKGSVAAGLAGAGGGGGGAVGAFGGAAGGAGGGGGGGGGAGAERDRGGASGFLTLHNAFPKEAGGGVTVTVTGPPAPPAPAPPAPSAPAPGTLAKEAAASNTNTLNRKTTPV
An in vitro assay was used to determine the potency of test compounds as inhibitors of the glutamate response of the channel formed by GluA1o-γ8. To ensure a 1:1 stoichiometry of GluA1o and γ8 subunits in the expressed channel, a fusion of the cDNAs for GRIA1o and CACNG8 was used. Following Shi et al (2009) “The stoichiometry of AMPA receptors and TARPs varies by neuronal cell type.” Neuron 62(5): 633-640), the C-terminus of the cDNA for GRIA1o was fused to the N-terminus of the cDNA for γ8. The linker sequence was QQQQQQQQQQEFAT. Channels expressed with this construct appear to have similar properties to channels formed by co-expression of GRIA1o with an excess of CACNG8 (Shi et al. 2009). A clonal cell line in HEK293 cells stably expressing this construct, with a geneticin selection marker, was generated for use in this assay.
Cell expressing the GRIA1o-CACNG8 fusion construct were grown in a monolayer in 96- or 384-well microtiter plates. They were washed with assay buffer (135 mM NaCl, 4 mM KCl, 3 mM CaCl2, 1 mM MgCl2, 5 mM glucose, 10 mM HEPES, pH 7.4, 300 mOs) using a Biotek EL405 plate washer. The cells were then loaded with a calcium-sensitive dye (Calcium-5 or Calcium-6, Molecular Devices) and the test compounds at a range of concentrations. Calcium flux following the addition of 15 μM glutamate was monitored using a Molecular Devices FLIPR Tetra.
The fluorescence in each well was normalized to the fluorescence of negative and positive control wells. The negative control wells had no added compounds, and the positive control wells had been incubated with 10 μM CP465022 (a non-subtype-selective AMPA receptor antagonist) (Lazzaro et al. (2002). “Functional characterization of CP-465,022, a selective, noncompetitive AMPA receptor antagonist.” Neuropharmacology 42(2): 143-153). The responses to glutamate as functions of the test compound concentrations were fitted to a four-parameter logistic function. The fitted parameter corresponding to the midpoint was taken to be the potency of inhibition of the compound. The data in Table 4 below illustrates the observed potency for the compounds described herein. pIC50 refers to the negative log of the IC50 in molar.
For orientation: A change in cytosolic calcium serves as a functional read-out for many receptors and channels.
As usually defined, the pIC50 is −log10 of the IC50, conventionally taken in molar units. On to `Cc1cc(-c2c(C(F)(F)F)ccn3nc(C(C)C)nc23)cc2cn[nH]c12` [Example 38, 2-Isopropyl-8-(7-methyl-1H-indazol-5-yl)-7-(trifluoromethyl)-[1,2,4]triazolo[1,5-a]pyridine], for which the pIC50 is given as 8.7.

For the molecule `Cc1cc(-c2c(-c3ccc(F)cc3)ccn3nc(C4CCC4)nc23)cc2cn[nH]c12` [Example 4, 2-Cyclobutyl-7-(4-fluorophenyl)-8-(7-methyl-1H-indazol-5-yl)-[1,2,4]triazolo[1,5-a]pyridine], the pIC50 was found to be 10.6.

For the molecule `Cc1cn2ccc(C(F)(F)F)c(-c3cc(C)c4[nH]ncc4c3)c2n1` [Example 94, 2-Methyl-8-(7-methyl-1H-indazol-5-yl)-7-(trifluoromethyl)imidazo[1,2-a]pyridine], the pIC50 turned out to be 8.1.

Consider `O=C1Cc2cc(-c3c(C(F)(F)F)ncn4cc(C5CC5)nc34)cc(F)c2N1` [Example 70, 5-[2-Cyclopropyl-7-(trifluoromethyl)imidazo[1,2-c]pyrimidin-8-yl]-7-fluoro-indolin-2-one], for which the pIC50 stood at 5.3.

Turning to `Cc1cc(-c2c(C(F)(F)F)ccn3nc(C(F)(F)F)nc23)cc2cn[nH]c12` [Example 20, 8-(7-Methyl-1H-indazol-5-yl)-2,7-bis(trifluoromethyl)-[1,2,4]triazolo[1,5-a]pyridine], the pIC50 was found to be 9.3.

On to `Cc1nc(C2CC2)c(-c2cc(Cl)c3[nH]ncc3c2)c2nc(C(F)F)cn12` [Example 80, 8-(7-Chloro-1H-indazol-5-yl)-7-cyclopropyl-2-(difluoromethyl)-5-methyl-imidazo[1,2-c]pyrimidine], for which the pIC50 was 9.2.

Turning to `FC(F)c1cn2cnc(C3CC3)c(-c3cc(Cl)c4[nH]ncc4c3)c2n1` [Example 78, 8-(7-Chloro-1H-indazol-5-yl)-7-cyclopropyl-2-(difluoromethyl)imidazo[1,2-c]pyrimidine], the pIC50 is 8.6.

Consider `CC(C)c1nc2c(-c3cc(Cl)c4[nH]ncc4c3)c(C(F)(F)F)ccn2n1` [Example 37, 8-(7-Chloro-1H-indazol-5-yl)-2-isopropyl-7-(trifluoromethyl)-[1,2,4]triazolo[1,5-a]pyridine], for which the pIC50 is 9.9.

Take `Cc1cc(-c2c(C(F)(F)F)ccn3cc(C(F)F)nc23)cc2cn[nH]c12` [Example 93, 2-(Difluoromethyl)-8-(7-methyl-1H-indazol-5-yl)-7-(trifluoromethyl)imidazo[1,2-a]pyridine]: the pIC50 came out at 9.3.

What is called IC50 is the concentration that inhibits the measured activity by half. In the case of `Fc1ccc(-c2ccn3cc(C(F)(F)F)nc3c2-c2ccc3[nH]ncc3c2)cc1` [Example 12, 5-(7-(4-Fluorophenyl)-2-(trifluoromethyl)imidazo[1,2-a]pyridin-8-yl)-1H-indazole], the IC50 is 3.16 nM.

In the case of `Cc1cc(-c2c(C)ccn3cc(-c4ccccc4)nc23)cc2c1NC(=O)C2` [Example 55, 7-Methyl-5-(7-methyl-2-phenyl-imidazo[1,2-a]pyridin-8-yl)indolin-2-one], the pIC50 was 7.4.

For the molecule `O=C1Cc2cc(-c3c(C(F)(F)F)ncn4cc(C5CC5)nc34)cc(Cl)c2N1` [Example 69, 7-Chloro-5-[2-cyclopropyl-7-(trifluoromethyl)imidazo[1,2-c]pyrimidin-8-yl]indolin-2-one], the pIC50 turned out to be 9.5.

Regarding `Cc1cc(-c2c(C(F)(F)F)ccn3cc(C4CC4)nc23)cc2cn[nH]c12` [Example 91, 2-Cyclopropyl-8-(7-methyl-1H-indazol-5-yl)-7-(trifluoromethyl)imidazo[1,2-a]pyridine], the pIC50 is given as 9.6.

Turning to `Cc1cc(-c2c(Cl)ccn3nc(C(F)(F)F)nc23)cc2cn[nH]c12` [Example 2, 7-Chloro-8-(7-methyl-1H-indazol-5-yl)-2-(trifluoromethyl)-[1,2,4]triazolo[1,5-a]pyridine], the pIC50 was 8.5.

As for `Cc1nc2c(-c3cc(Cl)c4[nH]ncc4c3)c(C(F)(F)F)ccn2n1` [Example 32, 8-(7-Chloro-1H-indazol-5-yl)-2-methyl-7-(trifluoromethyl)-[1,2,4]triazolo[1,5-a]pyridine], the pIC50 was 8.3.

Turning to `FC(F)(F)c1cn2cnc(C(F)(F)F)c(-c3cc(Cl)c4[nH]ncc4c3)c2n1` [Example 13, 8-(7-Chloro-1H-indazol-5-yl)-2,7-bis(trifluoromethyl)imidazo[1,2-c]pyrimidine], the IC50 was 0.316 nM.

For the molecule `COc1ccn2cc(C(F)(F)F)nc2c1-c1cc(C)c2[nH]ncc2c1` [Example 59, 7-Methoxy-8-(7-methyl-1H-indazol-5-yl)-2-(trifluoromethyl)imidazo[1,2-a]pyridine], the pIC50 is listed as 8.1.

As to `Cc1cc(-c2c(C)ccn3cc(C(C)(C)C)nc23)cc2c1NC(=O)C2` [Example 54, 5-(2-tert-Butyl-7-methyl-imidazo[1,2-a]pyridin-8-yl)-7-methyl-indolin-2-one], the pIC50 worked out at 7.1.

As for `Fc1ccc(-c2ccn3nc(C(F)(F)F)nc3c2-c2ccc3[nH]nc(F)c3c2)cc1` [Example 45, 8-(3-Fluoro-1H-indazol-5-yl)-7-(4-fluorophenyl)-2-(trifluoromethyl)-[1,2,4]triazolo[1,5-a]pyridine], the negative-log IC50 (pIC50) was found to be 7.6.

For the molecule `COc1ccn2nc(C(F)(F)F)nc2c1-c1cc(C)c2[nH]ncc2c1` [Example 29, 7-Methoxy-8-(7-methyl-1H-indazol-5-yl)-2-(trifluoromethyl)-[1,2,4]triazolo[1,5-a]pyridine], the pIC50 is listed as 7.6.

In the case of `Cc1cc(-c2c(-c3ccc(F)cc3)ccn3nc(C(F)(F)F)nc23)cc2cn[nH]c12` [Example 44, 7-(4-Fluorophenyl)-8-(7-methyl-1H-indazol-5-yl)-2-(trifluoromethyl)-[1,2,4]triazolo[1,5-a]pyridine], the pIC50 stood at 10.5.

With `FC(F)(F)c1cn2ccc(C(F)(F)F)c(-c3ccc4[nH]ncc4c3)c2n1` [Example 61, 5-(2,7-Bis(trifluoromethyl)imidazo[1,2-a]pyridin-8-yl)-1H-indazole], the pIC50 turned out to be 7.5.

For the molecule `O=c1[nH]c2ccc(-c3c(-c4ccc(F)cc4)ccn4nc(C(F)(F)F)nc34)cc2s1` [Example 5, 6-(7-(4-Fluorophenyl)-2-(trifluoromethyl)-[1,2,4]triazolo[1,5-a]pyridin-8-yl)benzo[d]thiazol-2(3H)-one], the pIC50 worked out at 9.6.

`Cc1cc(-c2c(-c3ccc(F)cc3)ccn3nc(C(F)F)nc23)cc2cn[nH]c12` [Example 46, 2-(Difluoromethyl)-7-(4-fluorophenyl)-8-(7-methyl-1H-indazol-5-yl)-[1,2,4]triazolo[1,5-a]pyridine]: the pIC50 is recorded as 10.5.

Regarding `CCc1ncn2cc(C(F)F)nc2c1-c1cc(Cl)c2[nH]ncc2c1` [Example 75, 8-(7-Chloro-1H-indazol-5-yl)-2-(difluoromethyl)-7-ethyl-imidazo[1,2-c]pyrimidine], the pIC50 turned out to be 8.9.

Turning to `Fc1c(C2CC2)nc2c(-c3cc(Cl)c4[nH]ncc4c3)c(C(F)(F)F)ncn12` [Example 82, 8-(7-Chloro-1H-indazol-5-yl)-2-cyclopropyl-3-fluoro-7-(trifluoromethyl)imidazo[1,2-c]pyrimidine], the pIC50 is 9.5.

With `Cc1cc(-c2c(C(F)(F)F)ccn3nc(C(C)C)nc23)cc2c1NC(=O)C2` [Example 39, 5-[2-Isopropyl-7-(trifluoromethyl)-[1,2,4]triazolo[1,5-a]pyridin-8-yl]-7-methyl-indolin-2-one], the pIC50 came out at 9.2.

`Cc1cc(-c2c(-c3ccc(F)cc3)ccn3nc(C4CC4)nc23)cc2cn[nH]c12` [Example 48, 2-Cyclopropyl-7-(4-fluorophenyl)-8-(7-methyl-1H-indazol-5-yl)-[1,2,4]triazolo[1,5-a]pyridine]: the pIC50 came to 10.1.

With `Cc1cc(-c2c(C(F)(F)F)ccn3nc(C4CC4)nc23)cc2cn[nH]c12` [Example 31, 2-Cyclopropyl-8-(7-methyl-1H-indazol-5-yl)-7-(trifluoromethyl)-[1,2,4]triazolo[1,5-a]pyridine], the pIC50 is reported as 9.7.

On to `CC(C)c1cn2cnc(C(F)(F)F)c(-c3cc(Cl)c4[nH]ncc4c3)c2n1` [Example 66, 8-(7-Chloro-1H-indazol-5-yl)-2-isopropyl-7-(trifluoromethyl)imidazo[1,2-c]pyrimidine], for which the pIC50 was 10.0.
